# From patent US20240116985A1, “STAPLED PEPTIDES AND METHODS THEREOF” (priority 2020, published 2024)
# Like-named read-outs stand apart in the source and are kept apart here.
# Assays:
# [1] = target: T1, full-length beta-Catenin (Uniprot ID P35222) (Homo sapiens, UniProt P35222); experiment: Fluorescence polarization IC50 (beta-catenin / 5FAM-TCF4 10-53 competition); type: binding
# T1 construct: 10 nM full-length beta-Catenin (Uniprot ID P35222)
# T1 sequence (P35222 1-781): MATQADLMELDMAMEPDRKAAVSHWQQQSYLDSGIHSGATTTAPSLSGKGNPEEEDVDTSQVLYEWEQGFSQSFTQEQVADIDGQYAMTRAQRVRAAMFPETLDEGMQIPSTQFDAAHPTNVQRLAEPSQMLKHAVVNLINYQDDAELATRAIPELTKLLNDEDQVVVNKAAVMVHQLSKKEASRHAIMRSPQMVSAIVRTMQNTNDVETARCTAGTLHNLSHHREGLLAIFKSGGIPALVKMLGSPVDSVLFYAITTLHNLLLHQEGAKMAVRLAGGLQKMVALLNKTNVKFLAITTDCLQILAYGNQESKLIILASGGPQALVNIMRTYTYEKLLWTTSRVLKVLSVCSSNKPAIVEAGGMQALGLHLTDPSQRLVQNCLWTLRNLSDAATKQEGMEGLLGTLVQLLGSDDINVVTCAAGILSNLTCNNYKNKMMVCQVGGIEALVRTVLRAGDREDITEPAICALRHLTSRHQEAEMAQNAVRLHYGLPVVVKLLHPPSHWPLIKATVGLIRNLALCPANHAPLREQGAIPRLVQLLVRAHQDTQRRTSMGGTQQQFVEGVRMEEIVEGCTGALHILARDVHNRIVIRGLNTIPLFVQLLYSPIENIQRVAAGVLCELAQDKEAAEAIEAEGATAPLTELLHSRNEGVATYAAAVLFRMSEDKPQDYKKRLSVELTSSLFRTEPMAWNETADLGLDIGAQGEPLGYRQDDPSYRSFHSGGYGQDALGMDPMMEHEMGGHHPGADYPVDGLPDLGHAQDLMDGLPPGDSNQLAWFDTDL
# CHI Log D procedure = type: physicochemical; conditions: for CHI Log D: pH 7.4; for chromatographic logD: pH 7.4, CHI Log D
# Solubility in PBS = type: physicochemical
# How it was run: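 Read-out is the HPLC peak area of the supernatant from ultracentrifuged PBS solution, scaled against a 50 μM peptide DMSO injection; value reported as [(PBS area)/(DMSO area)]*50 uM.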
# [2] = fluorescence polarization, read-out: beta-Catenin FP IC50
IC50 ([1]; read-out: FP EC50) [nM],CHI Log D (CHI Log D procedure),Solubility (Solubility in PBS) [µM],"IC50 [1, 2] [nM]",chromatographic logD (CHI Log D procedure),Solubility (Solubility in PBS; Solubility (uM)) [µM],Compound,also measured
,,,5000,2.61,42,"CC[C@H](C)[C@@H]1NC(=O)[C@H](CC(=O)O)NC(=O)[C@]2(CC=CCCCC3(CCCC=CCCCCCC[C@@](C)(C(=O)N[C@@H](Cc4ccccc4)C(=O)N[C@@H](Cc4csc5ccccc45)C(=O)N[C@@H](CCC(N)=O)C(N)=O)NC(=O)[C@H](CCC(N)=O)NC(=O)[C@H](C(c4ccccc4)c4ccccc4)NC(=O)[C@H](C)NC(=O)[C@H](C)NC(=O)[C@H](CCC(=O)O)NC(=O)[C@H](CC(=O)O)NC3=O)NC1=O)CCCN2C(C)=O (stereo partly drawn) [I-725, Ac-PL3-Asp-Ile-B5-Asp-Glu-Ala-Ala-DipA-Gln-S8-Phe-BztA-Gln-NH2]",
,,,57,2.99,48,"CC(=O)N1CCC[C@]12CC=CCCCC1(CCCC=CCCCCCC[C@@](C)(C(=O)N[C@@H](Cc3ccccc3)C(=O)N[C@@H](Cc3csc4ccccc34)C(=O)N[C@@H](CCC(N)=O)C(N)=O)NC(=O)[C@H](CC(N)=O)NC(=O)[C@H](Cc3ccccc3)NC(=O)[C@H](C)NC(=O)[C@H](C)NC(=O)[C@H](CN(CC(=O)O)CC(F)(F)F)NC(=O)[C@H](CC(=O)O)NC1=O)NC(=O)[C@H](CC1CCCCC1)NC(=O)[C@H](CC(=O)O)NC2=O (stereo partly drawn) [I-706, Ac-PL3-Asp-Cha-B5-Asp-TfeGA-Ala-Ala-Phe-Asn-S8-Phe-BztA-Gln-NH2]",
88,2.132,48,88,,,"CC[C@H](C)[C@@H]1NC(=O)[C@H](CC(=O)O)NC(=O)[C@]2(CC=CCCCC3(CCCC=CCCCCCC[C@@](C)(C(=O)N[C@@H](Cc4ccccc4)C(=O)N[C@@H](Cc4csc5ccccc45)C(=O)N[C@@H](CCC(N)=O)C(N)=O)NC(=O)[C@H](CCC(N)=O)NC(=O)[C@H](Cc4ccccc4)NC(=O)[C@H](C)NC(=O)[C@H](C)NC(=O)[C@H](CCC(=O)O)NC(=O)[C@H](CC(=O)O)NC3=O)NC1=O)CCCN2S(C)(=O)=O (stereo partly drawn) [I-711, MeSO2-PL3-Asp-Ile-B5-Asp-Glu-Ala-Ala-Phe-Gln-S8-Phe-BztA-Gln-NH2]",
,,,,2.05,48,"CC(=O)N1CCC[C@]12CC=CCCCC1(CCCC=CCCCOC(=O)N3CC[C@@](C(=O)N[C@@H](Cc4ccsc4)C(=O)N[C@@H](Cc4c[nH]c5ccc(Cl)cc45)C(=O)N[C@@H](Cc4c[nH]cn4)C(N)=O)(C3)NC(=O)[C@H](CC(N)=O)NC(=O)[C@H](Cc3ccccc3)NC(=O)[C@H](C)NC(=O)[C@H](C)NC(=O)[C@H](CC(=O)O)NC(=O)[C@H](CC(=O)O)NC1=O)NC(=O)[C@H](CC(C)(C)C)NC(=O)[C@H](CC(=O)O)NC2=O (stereo partly drawn) [I-791, Ac-PL3-Asp-Npg-B5-Asp-Asp-Ala-Ala-Phe-Asn-PyrS2-3Thi-5C1W-His-NH2]",IC50 ([1]; read-out: beta-Catenin FP IC50): 310 nM
,1.857,10,,,,"CCN(CC(=O)O)C[C@@H]1NC(=O)[C@H](CC(=O)O)NC(=O)C2(CCCC=CCCCOC(=O)N3CC[C@@](C(=O)N[C@@H](Cc4ccsc4)C(=O)N[C@@H](Cc4csc5ccccc45)C(=O)N[C@@H](CO)C(N)=O)(C3)NC(=O)[C@H](CO)NC(=O)[C@H](Cc3ccccc3)NC(=O)[C@H](C)NC(=O)[C@H](C)NC1=O)CCCC=CC[C@]1(CCCN1C(C)=O)C(=O)N[C@@H](CC(=O)O)C(=O)N[C@@H](CC(C)(C)C)C(=O)N2 (stereo partly drawn) [I-974, Ac-PL3-Asp-Npg-B5-Asp-EtGA-Ala-Ala-Phe-Ser-PyrS2-3Thi-BztA-Ser-NH2]","IC50 ([1]; fluorescence polarization, beta-catenin, read-out: FP EC50): 1780 nM; IC50 ([1]; read-out: beta-Catenin FP IC50): 1780 nM"
,,,5000,2.41,26,"CC[C@H](C)[C@@H]1NC(=O)[C@H](CC(=O)O)NC(=O)[C@]2(CC=CCCCC3(CCCC=CCCCCCC[C@@](C)(C(=O)N[C@@H](Cc4ccccc4)C(=O)N[C@@H](Cc4csc5ccccc45)C(=O)N[C@@H](CCC(N)=O)C(N)=O)NC(=O)[C@H](CCC(N)=O)NC(=O)[C@H](CC(C)(C)C)NC(=O)[C@H](C)NC(=O)[C@H](C)NC(=O)[C@H](CCC(=O)O)NC(=O)[C@H](CC(=O)O)NC3=O)NC1=O)CCCN2C(C)=O (stereo partly drawn) [I-727, Ac-PL3-Asp-Ile-B5-Asp-Glu-Ala-Ala-Npg-Gln-S8-Phe-BztA-Gln-NH2]",

# Second part, the compound before the results:
Compound,IC50 ([1]; read-out: FP EC50) [nM],CHI Log D (CHI Log D procedure),Solubility (Solubility in PBS) [µM],"IC50 [1, 2] [nM]",chromatographic logD (CHI Log D procedure),Solubility (Solubility in PBS; Solubility (uM)) [µM],also measured
"CC[C@H](C)[C@@H]1NC(=O)[C@H](CC(=O)O)NC(=O)[C@]2(CC=CCCCC3(CCCC=CCCCCCC[C@@](C)(C(=O)N[C@@H](Cc4ccccc4)C(=O)N[C@@H](Cc4csc5ccccc45)C(=O)N[C@@H](CCC(N)=O)C(N)=O)NC(=O)[C@H](CCC(N)=O)NC(=O)[C@H](Cc4ccccc4)NC(=O)[C@H](C)NC(=O)[C@H](C)NC(=O)[C@H](CCC(=O)O)NC(=O)[C@H](CC(=O)O)NC3=O)NC1=O)CCCN2C(=O)Cc1ccccc1 (stereo partly drawn) [I-601, Bnc-PL3-Asp-Ile-B5-Asp-Glu-Ala-Ala-Phe-Gln-S8-Phe-BztA-Gln-NH2]",419,2.748,43,,,,"IC50 ([1]; read-out: beta-Catenin FP IC50, fluorescence polarization): 419 nM"
"CC[C@H](C)[C@@H]1NC(=O)[C@H](CC(=O)O)NC(=O)[C@]2(CC=CCCCC3(CCCC=CCCCCCC[C@@](C)(C(=O)N[C@@H](Cc4ccccc4)C(=O)N[C@@H](Cc4csc5ccccc45)C(=O)N[C@H](C(N)=O)C(C)C)NC(=O)[C@H](CCC(N)=O)NC(=O)[C@H](Cc4ccccc4)NC(=O)[C@H](C)NC(=O)[C@H](C)NC(=O)[C@H](CCC(=O)O)NC(=O)[C@H](CC(=O)O)NC3=O)NC1=O)CCCN2C(C)=O (stereo partly drawn) [I-646, Ac-PL3-Asp-Ile-B5-Asp-Glu-Ala-Ala-Phe-Gln-S8-Phe-BztA-Val-NH2]",461,2.694,41,461,,,
"CC(=O)N1CCC[C@]12CC=CCCCC1(CCCC=CCCCCCC[C@@](C)(C(=O)N[C@@H](Cc3ccccc3)C(=O)N[C@@H](Cc3csc4ccccc34)C(=O)N[C@@H](Cc3ccco3)C(N)=O)NC(=O)[C@H](CCC(N)=O)NC(=O)[C@H](Cc3ccccc3)NC(=O)[C@H](C)NC(=O)[C@H](C)NC(=O)[C@H](CCC(=O)O)NC(=O)[C@H](CC(=O)O)NC1=O)NC(=O)[C@H](C)NC(=O)[C@H](CC(=O)O)NC2=O (stereo partly drawn) [I-490, Ac-PL3-Asp-Ala-B5-Asp-Glu-Ala-Ala-Phe-Gln-S8-Phe-BztA-2FurA-NH2]",,,50,88,2.21,,
"CC[C@H](C)[C@@H]1NC(=O)[C@H](CC(=O)O)NC(=O)[C@]2(CC=CCCCC3(CCCC=CCCCCCC[C@@](C)(C(=O)N[C@@H](Cc4ccccc4)C(=O)N[C@@H](Cc4csc5ccccc45)C(N)=O)NC(=O)[C@H](CCC(N)=O)NC(=O)[C@H](Cc4ccccc4)NC(=O)[C@H](C)NC(=O)[C@H](C)NC(=O)[C@H](CCC(=O)O)NC(=O)[C@H](CC(=O)O)NC3=O)NC1=O)CCCN2C(C)=O (stereo partly drawn) [I-408, Ac-PL3-Asp-Ile-B5-Asp-Glu-Ala-Ala-Phe-Gln-S8-Phe-BztA-NH2]",120,2.674,50,120,,,
"CC[C@H](NC(=O)[C@H](Cc1csc2ccccc12)NC(=O)[C@H](Cc1ccccc1)NC(=O)[C@]1(C)CCCCCCC=CCCCC2(CCCC=CC[C@]3(CCCN3C(C)=O)C(=O)N[C@@H](CC(=O)O)C(=O)N[C@@H](C)C(=O)N2)C(=O)N[C@@H](CC(=O)O)C(=O)N[C@@H](CCC(=O)O)C(=O)N[C@@H](C)C(=O)N[C@@H](C)C(=O)N[C@@H](Cc2ccccc2)C(=O)N[C@@H](CCC(N)=O)C(=O)N1)C(N)=O (stereo partly drawn) [I-509, Ac-PL3-Asp-Ala-B5-Asp-Glu-Ala-Ala-Phe-Gln-S8-Phe-BztA-Abu-NH2]",,,,99,2.16,41,
"CC[C@H](C)[C@@H]1NC(=O)[C@H](CC(=O)O)NC(=O)[C@]2(CC=CCCCC3(CCCC=CCCCCCC[C@@](C)(C(=O)N[C@@H](Cc4ccccc4)C(=O)N[C@@H](Cc4csc5ccccc45)C(=O)N[C@@H](CO)C(N)=O)NC(=O)[C@H](CCC(N)=O)NC(=O)[C@H](Cc4ccccc4)NC(=O)[C@H](C)NC(=O)[C@H](C)NC(=O)[C@H](CCC(=O)O)NC(=O)[C@H](CC(=O)O)NC3=O)NC1=O)CCCN2C(C)=O (stereo partly drawn) [I-640, Ac-PL3-Asp-Ile-B5-Asp-Glu-Ala-Ala-Phe-Gln-S8-Phe-BztA-Ser-NH2]",87,2.516,50,87,,,
"CC(=O)N1CCC[C@]12CC=CCCCC1(CCCC=CCCCCCC[C@@](C)(C(=O)N[C@@H](Cc3c[nH]cn3)C(=O)N[C@@H](Cc3csc4ccccc34)C(=O)N[C@@H](CCC(N)=O)C(N)=O)NC(=O)[C@H](C)NC(=O)[C@H](Cc3ccccc3)NC(=O)[C@H](C)NC(=O)[C@H](C)NC(=O)[C@H](CC(=O)O)NC(=O)[C@H](CC(=O)O)NC1=O)NC(=O)[C@H](C)NC(=O)[C@H](CC(=O)O)NC2=O (stereo partly drawn) [I-362, Ac-PL3-Asp-Ala-B5-Asp-Asp-Ala-Ala-Phe-Ala-S8-His-BztA-Gln-NH2]",,,,,1.44,47,"IC50 ([1]; Table E2-1, read-out: beta-Catenin FP IC50): 3660 nM"
